Consider one molecule from patent US5849326A, “Method for treating neuronal diseases via administration of 2-acylaminopropanol derivatives” (Seikagaku Corporation, priority 1993, dated 1998).

For data set [1], the target named is T1, GlcCer (glucosylceramide) synthase (Rattus norvegicus, UniProt Q9R0E0).
T1 construct: primary culture of cerebral cortex tissue specimens of Wister albino rats; endogenous in cells; host or cells: primary culture of rat (Wistar) cerebral cortex, sonicated after 40 h with compound
T1 sequence (Q9R0E0 1-394): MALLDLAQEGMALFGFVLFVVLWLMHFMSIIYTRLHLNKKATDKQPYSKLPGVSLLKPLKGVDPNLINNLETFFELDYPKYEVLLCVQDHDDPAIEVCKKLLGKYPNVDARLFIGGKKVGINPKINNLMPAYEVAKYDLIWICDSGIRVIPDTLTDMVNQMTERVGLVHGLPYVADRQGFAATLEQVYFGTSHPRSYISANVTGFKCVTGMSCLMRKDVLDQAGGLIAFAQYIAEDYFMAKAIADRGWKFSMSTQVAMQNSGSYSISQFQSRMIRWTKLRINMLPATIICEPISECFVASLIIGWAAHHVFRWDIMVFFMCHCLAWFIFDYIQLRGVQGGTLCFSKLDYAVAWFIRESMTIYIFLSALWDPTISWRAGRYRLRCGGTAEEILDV
Nature of the data set: Enzyme activity in treated cerebral cortex culture: GlcCer synthase. The data set is classed as cell-based. The settings on record: culture treated with 15 μM for 40 hours; read-out: Accelerating activity when enzyme activity of control is defined as 100%: GlcCer-synthase. Here is the method: (§1) After the mixture was cultured for 40 hours, the resulting culture was harvested and pulverized in a homogenized buffer (50 mM Hepes, 0.32M sucrose) by using a chip type sonicator to prepare an enzyme source.
After ^3 H-GlcCer which was a reaction product was extracted with t-butyl methyl ether, the extract was concentrated and evaporated to dryness, and its radioactivity was measured.

In data set [2] the test system is ICR mice. Nature of the data set: General toxicity, continuous 10-day intraperitoneal administration. The data set is classed as in vivo. The conditions noted are these: 100 mg/kg/day intraperitoneally for 10 days.
Data set [3] has as its system acyl-CoA: sphingosine N-acyltransferase. Nature of the data set: Enzyme activity in treated cerebral cortex culture: acyl-CoA: sphingosine N-acyltransferase. The data set is classed as cell-based, rat. Details: key: *: No accelerating activity. The conditions noted are these: culture treated with 15 μM for 40 hours. The method, then: as §1
0.25 mM sphingosine and 0.45 mM ^14 C palmitoyl CoA (8.3×10^5cpm) were reacted in the presence of ATP (adenosine 5'-triphosphate). After ceramide which was a reaction product was subjected to solvent extraction, the extract was concentrated and evaporated to dryness, and its radioactivity was counted.

Data set [4] deals with primary cultured rat cerebral neurocytes (hippocampal neurons). Nature of the data set: Neurite extension of primary cultured hippocampal neurocytes.
Description: Hippocampi of rat brains at the 0th day after birth were extracted aseptically, subjected to enzyme treatment with papain in the same manner as in Example 1 and then washed with a DF medium. […] After culture for 24 hours, the neurocytes were fixed by paraformaldehyde, and a degree of neurite extension was recorded by microphotographs and then observed.
Data set [5] concerns LacCer (lactosylceramide) synthase. Nature of the data set: Enzyme activity in treated cerebral cortex culture: LacCer synthase. The settings on record: culture treated with 15 μM for 40 hours. The class given is cell-based, rat. The method, then: as §1
GlcCer as an acceptor substrate was reacted with 0.315mM UDP (uridine diphosphate)-^3 H galactose (2.7×10^8 cpm) as a donor substrate. After the mixture containing ^3 H-LacCer which was a reaction product was developed by a silica gel thin layer plate, a portion corresponding to the reaction product was scratched off, and its radioactivity was counted.

Molecules are shown by their SMILES.

As for `CCCCCCCCCC(=O)N[C@@H](CN1CCOCC1)[C@@H](O)c1ccccc1` [L-threo-PDMP, 1-phenyl-2-decanoylamino-3-morpholino-1-propanol], the enzyme activity relative to control at 15 µM in data set [1] was 122%. Also, the “decrease in weight / decrease in neutrophile, acidocyte due to suppression of bone marrow” value in data set [2] (in Myrj 52) is listed as “neither decrease in weight nor decrease in neutrophile, acidocyte, etc. due to suppression of bone marrow was observed”. Further, in data set [2] (observation for 3 months), the “abnormality on observation for 3 months” value was “no abnormality was observed”. In addition, in data set [3], the “Accelerating activity when enzyme activity of control is defined as 100%: Acyl-CoA: sphigosine N-acyltransferase” value is listed as “*”. The “neurite extension (microphotographs)” value in data set [4] (5 μM, 20 μM and 40 μM, culture for 24 hours, FIG. 2) is “significant neurite-extending action”. Also, in data set [4] (1 to 40 μM, FIG. 3), the “lengths of the neurites, statistical processing” value is on record as “accelerates neurite extension with a significant different of P<0.005”. For the same molecule, the “Accelerating activity when enzyme activity of control is defined as 100%: LacCer synthase” value in data set [5] came out at 243.3%.
